# Laboratory results: patent US6750228B1, “Aromatic sulfone hydroxamic acid metalloprotease inhibitor” (priority 1997, dated 2004)
# Where two headings read alike, the source gives them in different places.
# Assays:
# Experiment in all cases: biochemical
# MMP-1 = biological target: T1, MMP-1 (Homo sapiens, UniProt P03956); details: read-out: MMP-1 IC50
# T1 construct: made in house; host or cells: transfected HT-1080 cells (provided by Dr. Harold Welgus, Washington University)
# T1 sequence (P03956 100-469): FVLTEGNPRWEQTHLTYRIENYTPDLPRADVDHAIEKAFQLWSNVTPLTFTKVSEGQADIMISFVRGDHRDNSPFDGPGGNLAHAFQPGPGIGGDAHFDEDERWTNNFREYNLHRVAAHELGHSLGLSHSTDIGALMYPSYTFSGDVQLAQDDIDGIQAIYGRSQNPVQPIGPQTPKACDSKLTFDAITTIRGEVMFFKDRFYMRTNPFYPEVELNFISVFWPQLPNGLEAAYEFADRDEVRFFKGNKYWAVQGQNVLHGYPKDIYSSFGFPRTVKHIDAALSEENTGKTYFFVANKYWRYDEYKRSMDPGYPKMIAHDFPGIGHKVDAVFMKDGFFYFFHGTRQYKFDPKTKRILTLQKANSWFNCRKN
# Procedure, shortened: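 APMA- or trypsin-activated enzymes were preincubated with inhibitor for 5 min at room temperature, then the fluorogenic substrate MCA-Pro-Leu-Gly-Leu-Dpa-Ala-Arg-NH2 was added to a final 4 μM.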
# MMP-2 = biological target: T2, MMP-2 (Homo sapiens, UniProt P08253); details: read-out: MMP-2 IC50
# T2 construct: made in house; provided by Dr. Gregory Goldberg, Washington University
# T2 sequence (P08253 110-660): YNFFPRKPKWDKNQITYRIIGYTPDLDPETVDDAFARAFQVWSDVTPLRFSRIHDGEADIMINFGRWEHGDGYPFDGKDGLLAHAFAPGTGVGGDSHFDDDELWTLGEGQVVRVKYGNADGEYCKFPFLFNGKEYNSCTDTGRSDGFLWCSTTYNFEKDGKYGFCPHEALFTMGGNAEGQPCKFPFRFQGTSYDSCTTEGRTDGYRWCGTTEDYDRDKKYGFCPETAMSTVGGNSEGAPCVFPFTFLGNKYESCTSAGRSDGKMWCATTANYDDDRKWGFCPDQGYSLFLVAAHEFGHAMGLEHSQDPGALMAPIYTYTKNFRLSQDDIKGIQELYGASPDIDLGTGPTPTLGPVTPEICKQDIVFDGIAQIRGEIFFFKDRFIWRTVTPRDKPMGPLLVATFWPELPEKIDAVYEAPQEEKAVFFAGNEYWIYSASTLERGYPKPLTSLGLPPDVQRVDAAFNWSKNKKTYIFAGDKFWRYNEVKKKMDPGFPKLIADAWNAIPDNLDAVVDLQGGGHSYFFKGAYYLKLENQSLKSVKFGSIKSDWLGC
# Procedure, shortened: (§1)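 Assay buffer 100 mM Tris-HCl, 100 mM NaCl, 10 mM CaCl2, pH 7.5. Activated MMP + inhibitor, 5 min RT; then methoxycoumarin peptide substrate, 4 μM final. Readout fluorescence; IC50 calculated.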
# MMP-13 = biological target: T3, MMP-13 (Homo sapiens, UniProt P45452); details: read-out: MMP-13 IC50
# T3 construct: made in house; host or cells: baculovirus / insect cells
# Procedure, shortened: as §1
# [1] = recombinant human MMP-1, MCA peptide substrate 4 μM, pH 7.5, room temperature
# [2] = recombinant human MMP-2, MCA peptide substrate 4 μM, pH 7.5, room temperature
# [3] = recombinant human MMP-13, MCA peptide substrate 4 μM, pH 7.5, room temperature
IC50 (MMP-1; [1]) [nM],IC50 (MMP-2; [2]) [nM],IC50 (MMP-13; [3]) [nM],Structure (SMILES),IC50 (MMP-1) [nM],IC50 (MMP-2) [nM],IC50 (MMP-13) [nM]
,,,"C[C@H]1C[C@H](C)CN(C(=O)C2CCN(c3ccc(S(=O)(=O)C4(C(=O)NO)CCN(C(=O)OC(C)(C)C)CC4)cc3)CC2)C1 (relative stereo) [Example 239, rel-1,1-Dimethylethyl 4-[[4-[4-[[(3R,5R)-3,5-Dimethyl-1-piperidinyl]carbonyl]-1-piperidinyl]-phenyl]sulfonyl]-4-[(hydroxyamino)carbonyl]-1-piperidinecarboxylate]",> 10000,8300,9
> 10000,200,16.9,N#Cc1ccccc1-c1ccc(COC2CCN(c3ccc(S(=O)(=O)C4(C(=O)NO)CCOCC4)cc3)CC2)cc1 [Example 557],,,
,,,O=C(c1ccc(F)cc1)C1CCN(c2ccc(S(=O)(=O)C3(C(=O)NO)CCSCC3)cc2)CC1 [Example 152],> 10000,59,2
> 10000,64.7,5,O=C(NO)C1(S(=O)(=O)c2ccc(N3CCC(Oc4ccccc4F)CC3)cc2)CCOCC1 [Example 547],,,
> 10000,88,7.7,Cc1ccccc1N1CCN(c2ccc(S(=O)(=O)C3(C(=O)NO)CCOCC3)cc2)CC1 [Example 536],,,
> 10000,28.8,3.3,CCCCC(=O)C1CCN(c2ccc(S(=O)(=O)C3(C(=O)NO)CCOCC3)cc2)CC1 [Example 757],,,
> 10000,3400,75,CN(C)c1cccc(NC(=O)C2CCN(c3ccc(S(=O)(=O)C4(C(=O)NO)CCOCC4)cc3)CC2)c1 [Example 77],,,
> 10000,28.8,7,CC(C)CC(=O)C1CCN(c2ccc(S(=O)(=O)C3(C(=O)NO)CCOCC3)cc2)CC1 [Example 756],,,
> 10000,34.7,5,C=CCCC(=O)C1CCN(c2ccc(S(=O)(=O)C3(C(=O)NO)CCOCC3)cc2)CC1 [Example 758],,,
> 10000,125,50,COc1ccccc1COC1CCC(Oc2ccc(S(=O)(=O)C3(C(=O)NO)CCOCC3)cc2)C1 (stereo not drawn) [Example 741],,,
> 10000,235,70,CCOCC1CCCN(c2ccc(S(=O)(=O)C3(C(=O)NO)CCOCC3)cc2)C1 (stereo not drawn) [Example 563],,,
> 10000,158,60,O=C(NO)C1(S(=O)(=O)c2ccc(N3CCCC3)cc2)CCOCC1 [Example 81],,,
,,,O=C(C1CCN(c2ccc(S(=O)(=O)C3(C(=O)NO)CCOCC3)cc2)CC1)N1CCN(c2ccc(F)cc2F)CC1 [Example 36],> 10000,2100,15.8
6000,1.2,1.8,COCCc1ccc(OC2CCN(c3ccc(S(=O)(=O)C4(C(=O)NO)CCOCC4)cc3)CC2)cc1 [Example 643],,,
> 10000,300,14.8,O=C(NCCc1ccccc1)OC1CCN(c2ccc(S(=O)(=O)C3(C(=O)NO)CCOCC3)cc2)CC1 [Example 516],,,
,,,COc1ccc(Oc2ccc(S(=O)(=O)C3(C(=O)NO)CCS(=O)(=O)CC3)cc2)cc1 [Example 156],> 10000,0.45,2.2
,,,O=C(C1CCN(c2ccc(S(=O)(=O)C3(C(=O)NO)CCOCC3)cc2)CC1)N1CCN(CCN2CCOCC2)CC1 [Example 42],> 10000,> 10000,82.5
> 10000,60,5,O=C(NO)C1(S(=O)(=O)c2ccc(N3CCC(Oc4ccc(Br)cc4)CC3)cc2)CCOCC1 [Example 479],,,
> 10000,2200,107,O=C(NO)C1(S(=O)(=O)c2ccc(N3CCC(OCc4ccncc4)CC3)cc2)CCOCC1 [Example 577],,,
> 10000,0.7,0.5,COCCN1CCN(CC(=O)N2CCC(C(=O)NO)(S(=O)(=O)c3ccc(Oc4ccc(C(F)(F)F)cc4)cc3)CC2)CC1 [Example 330],,,
5200,55,70,O=C(c1ccco1)N1CCN(c2ccc(S(=O)(=O)C3(C(=O)NO)CCOCC3)cc2)CC1 [Example 537],,,
> 10000,0.1,0.3,O=C(CN1CCCCC1)N1CCC(C(=O)NO)(S(=O)(=O)c2ccc(Oc3ccc(C(F)(F)F)cc3)cc2)CC1 [Example 318],,,
> 10000,87.7,5,O=C(NO)C1(S(=O)(=O)c2ccc(N3CCC(Oc4ccc(C(F)(F)F)cc4)CC3)cc2)CCOCC1 [Example 567],,,
> 10000,4700,70,CC1CN(c2ccc(S(=O)(=O)C3(C(=O)NO)CCOCC3)cc2)CCC1OCc1ccc(C(F)(F)F)cc1 (stereo not drawn) [Example 583],,,
> 10000,43.5,10.6,CCCC(=O)C1CCN(c2ccc(S(=O)(=O)C3(C(=O)NO)CCOCC3)cc2)CC1 [Example 799],,,
> 10000,15.8,4.2,CCOc1cccc(OC2CCN(c3ccc(S(=O)(=O)C4(C(=O)NO)CCOCC4)cc3)CC2)c1 [Example 640],,,
> 10000,140,27,O=C(NO)C1(S(=O)(=O)c2ccc(N3CC[C@@H](OCc4ccc(OC(F)(F)F)cc4)C3)cc2)CCOCC1 [Example 467],,,
> 10000,5.7,7,O=C(NO)C1(S(=O)(=O)c2ccc(N3CCC(Oc4ccc(Cl)c(Cl)c4)CC3)cc2)CCOCC1 [Example 617],,,
> 10000,0.2,0.8,O=C(CCCCNCc1cccnc1)N1CCC(C(=O)NO)(S(=O)(=O)c2ccc(Oc3ccc(C(F)(F)F)cc3)cc2)CC1 [Example 333],,,

Structure (SMILES),IC50 (MMP-1; [1]) [nM],IC50 (MMP-2; [2]) [nM],IC50 (MMP-13; [3]) [nM],IC50 (MMP-1) [nM],IC50 (MMP-2) [nM],IC50 (MMP-13) [nM]
O=C(c1ccco1)N1CCC(C(=O)NO)(S(=O)(=O)c2ccc(N3CCC(OCc4ccc(Cl)cc4)CC3)cc2)CC1 [Example 432],> 10000,100,13.9,,,
O=C(NO)C1(S(=O)(=O)c2ccc(N3CCC(Oc4ccccc4O)CC3)cc2)CCOCC1 [Example 835],> 10000,20,6,,,
CC1CC(C)CN(C(=O)C2CCN(c3ccc(S(=O)(=O)C4(C(=O)NO)CCN(C(=O)CNCc5ccccn5)CC4)cc3)CC2)C1 (stereo not drawn) [Example 284],> 10000,> 10000,130,,,
O=C(Nc1ccc(Cl)c(Cl)c1)N1CCC(C(=O)NO)(S(=O)(=O)c2ccc(Oc3ccc(OC(F)(F)F)cc3)cc2)CC1 [Example 359],> 10000,12.2,34.9,,,
CC1CC(C)CN(C(=O)C2CCN(c3ccc(S(=O)(=O)C4(C(=O)NO)CCN(C(=O)CN5CCNCC5)CC4)cc3)CC2)C1 (stereo not drawn) [Example 290],> 10000,> 10000,50,,,
O=C(NO)C1(S(=O)(=O)c2ccc(Oc3ccc(OC(F)(F)F)cc3)cc2)CCN(C2=NCCN2)CC1 [Example 413],8000,0.3,1.1,,,
Cc1cccc(C(=O)C2CCN(c3ccc(S(=O)(=O)C4(C(=O)NO)CCOCC4)cc3)CC2)c1 [Example 653],> 10000,160,0.8,,,
Cc1cc(C)cc(C(=O)C2CCN(c3ccc(S(=O)(=O)C4(C(=O)NO)CCOCC4)cc3)CC2)c1 [Example 730],> 10000,3000,37,,,
CC1CCCC(S(=O)(=O)C2CCN(c3ccc(S(=O)(=O)C4(C(=O)NO)CCOCC4)cc3)CC2)C1 (stereo not drawn) [Example 822],> 10000,210,10,,,
O=C(c1ncc[nH]1)N1CCC(C(=O)NO)(S(=O)(=O)c2ccc(Oc3ccc(OC(F)(F)F)cc3)cc2)CC1 [Example 379],> 10000,0.1,0.3,,,
